Laboratory results from patent publication EP1514922A1 (priority 2003, dated 2005).

How the values were obtained:
[1] = tested on: chloride sensor (ECFP - peptide linker - EYFP with mutations I152L, V163S, H148Q; SEQ ID No. 5); test: Calibration of chloride sensor emission ratio R=F527/F485 in patch-pipette dialysed cells; assay type: cell-based; conditions: in HEK293 and BOSC23 cells; Rmax = 2,39, Rmin = 0,49
Protocol: The chloride sensor was expressed in human kidney derived cell lines (HEK293 and BOSC23) using a calcium phosphate transfection procedure.
Measurements of fluorescence are likely to reflect the average [Cl-] in the intracellular compartment.
The ratio (R) of fluorescence emission of the EYFP acceptor to that of the ECFP donor is R=F527/F485.
To calibrate the fluorescence of chloride sensor within these cells, R is measured while using a patch pipette to manipulate the cytoplasmic concentration of anions. A nominally Cl- free solution containing 150 mM gluconate is used to determine the maximal emission ratio for the chloride sensor (Rmax), whereas a solution containing a saturating concentration (150mM) of Cl- defines the minimal emission ratio (Rmin). The relationship between R and intermediates values of [Cl-] is then determined. This relationship could be described as : [Cl-]= K'd (Rmax - R)/(R - Rmin), [formula] with Rmax = 2,39, Rmin = 0,49 and K'd = 87mM. this calibration curve can then be used to convert R values measured in intracellular compartment of living cells into [Cl-].

[2] = target: YFP double mutant YFP-H148Q/V163S (Aequorea victoria, UniProt P42212, H148Q/H231L/S65G/S72A/T203Y/V163S/V68L); conditions: physiological pH (7,35); cited from earlier work
[3] = target: YFP double mutant YFP-H148Q/I152L (Aequorea victoria, UniProt P42212, H148Q/H231L/I152L/S65G/S72A/T203Y/V68L); conditions: cited from earlier work

In the case of chloride [Cl^-], the Kd [1] is given as 87 mM, the Kd [2] is given as 39 mM and the “binding kinetics (τ)” value [2] is given as 1900 ms. For the same substance, the Kd [3] was 85 mM and the “binding kinetics (τ)” value [3] was 52 ms.
